According to patent US20210283099A1, “CDC7 KINASE INHIBITORS AND USES THEREOF” (SLOAN-KETTERING INSTITUTE FOR CANCER RESEARCH, priority 2010, published 2021):

What was measured:
Mcm2 phosphorylation = experiment: Western blotting of Mcm2 after S phase release; assay type: cell-based, human; conditions: PhALL3.1 cells, as early as 2 hours post release
From the text: FIG. 7. Granaticin A Inhibits Mcm2 phosphorylation: Following synchronization in S phase and release, PhALL3.1 cells from the experiments of FIG. 5 and FIG. 6 were collected at the indicated times post release into either control (DMSO) or granaticin A and extracts were subjected to Western blotting to detect total Mcm2 protein.

PhALL3.1 = experiment: Cytotoxicity assay (Alamar blue), patient leukemia sample; assay type: cell-based, human; conditions: for IC50: Homo sapiens, PhALL3.1
Procedure: (§1) FIGS. 16A-16B. Granaticin A and Granaticin B inhibit multiple tumor types: The indicated cell lines and primary patient samples were tested against the compounds listed in standard cytotoxicity assays (12 point dose response using Alamar blue reduction as an indicator of cell viability). Assays were done in triplicate and IC50 determinations were run in 12-point serial dilutions from […] to 5 nM. […] These include ras and EGFR gatekeeper mutation containing cell lines in addition to p53 mutant cell lines and other known chemotherapy resistant cell lines. Specifically, this included multi-drug resistance phenotype (MDR-overexpressing) cell lines from multiple hematologic and solid tumor cell lines. Table 1 highlights a series of primary patient leukemia samples-both acute and chronic and treatment naïve and refractory tested against granaticins A and B and Derivatives 1 and 2 (see Examples).
(§2) Table 1 highlights a series of primary patient leukemia samples-both acute and chronic and treatment naïve and refractory and the effect of granaticin A, granaticin B, derivative 1, and derivative 2 to inhibit cellular proliferation. […] The two starred samples represent serial samples taken from the same patients after they received 2-3 cycles of additional high dose salvage chemotherapy and indicate that although refractory to salvage chemotherapy, the Cdc7 pathway remains a potentially efficacious target as the sensitivity to these compounds remains unchanged. Importantly, each patient sample was resistant to the prior therapy received using this assay.

RB355 = experiment: Cytotoxicity assay (Alamar blue); assay type: cell-based; conditions: Human retinoblastoma
Procedure: as §1

OVCAR3 = experiment: Cytotoxicity assay (Alamar blue); assay type: cell-based; conditions: OVCAR-3, human ovarian adenocarcinoma
Procedure: as §1

A2780 = experiment: Cytotoxicity assay (Alamar blue); assay type: cell-based; conditions: Human ovarian carcinoma
Procedure: as §1

JNDSRCT1 = experiment: Cytotoxicity assay (Alamar blue); assay type: cell-based; conditions: Human desmoplastic small round cell tumor cell line
Procedure: as §1

SW1736 = experiment: Cytotoxicity assay (Alamar blue); assay type: cell-based; conditions: SW-1736, Human anaplastic thyroid carcinoma with BRAF V600E mutation
Procedure: as §1

JOBL = experiment: Cytotoxicity assay (Alamar blue); assay type: cell-based; conditions: Homo sapiens, Patient sample of relapsed/refractory acute myelogenous leukemia
Procedure: as §1

Ph-ALL3.1 cells = experiment: Release of elutriated S phase cells, FACS and 3H-thymidine incorporation; assay type: cell-based, human
Procedure: FIG. 5. […] Ph-ALL3.1 cells were subjected to standard centrifugal elutriation conditions and the S phase fraction, as determined by FACS analysis, was released into granaticin A (1 μM) or vehicle control (DMSO) for the indicated times and FACS analysis was performed. […] Apoptosis was confirmed in additional independent experiments. Asynchronous and time zero correspond to an asynchronous cell sample and the elutriated S phase fraction prior to release, respectively.
FIG. 6. Thymidine incorporation in S-phase: ^3H-Thymidine incorporation during the release experiment outlined in the slide above. Cell samples post-release into granaticin A or vehicle control (DMSO) were pulsed for 2 hours with ^3H-thymidine, and samples were collected, washed, and acid precipitable counts were measured by scintillation counting. X-axis is time post-release into compound or control (in hours) and y-axis is counts per minute (CPM).

[1] = system: CLL, untreated, chromosome 17 p del.; experiment: Cytotoxicity assay (Alamar blue), patient leukemia sample; assay type: cell-based; conditions: Homo sapiens
Procedure: as §1, §2

ALL, Ph+ = experiment: as above; assay type: cell-based; conditions: Homo sapiens
Procedure: as §1, §2

AML, relapsed = experiment: as above; assay type: cell-based; conditions: Homo sapiens
Procedure: as §1, §2

AML, de novo = experiment: as above; assay type: cell-based; conditions: Homo sapiens
Procedure: as §1, §2

AML, relapsed s/p HSCT = experiment: as above; assay type: cell-based; conditions: Homo sapiens
Procedure: as §1, §2

AMMoL = experiment: as above; assay type: cell-based; conditions: Homo sapiens
Procedure: as §1, §2

[2] = system: Biphenotypic acute leukemia 1*; experiment: as above; assay type: cell-based; conditions: Homo sapiens, second sample from the same patient following high-dose chemotherapy
Procedure: as §1, §2

[3] = system: AML, primary refractory 1*; experiment: as above; assay type: cell-based; conditions: Homo sapiens, second sample from the same patient following high-dose chemotherapy
Procedure: as §1, §2

AML, primary refractory = experiment: as above; assay type: cell-based; conditions: Homo sapiens
Procedure: as §1, §2

[4] = system: Biphenotypic acute leukemia 1; experiment: as above; assay type: cell-based; conditions: Homo sapiens
Procedure: as §1, §2

[5] = system: AML, primary refractory 1; experiment: as above; assay type: cell-based; conditions: Homo sapiens
Procedure: as §1, §2

CML, untreated = experiment: as above; assay type: cell-based; conditions: Homo sapiens
Procedure: as §1, §2

HeLa S3 cells = experiment: Double thymidine block and release, FACS and morphology; assay type: cell-based, human; conditions: for morphologic appearance: 15 hours release from double thymidine block; for cell cycle progression by FACS: cells synchronized at the G1/S transition and released into compound
Procedure: FIG. 9. […] Synchronized cells (time zero) were released into media containing granaticin A for the indicated times and standard FACS analysis performed looking at DNA content.
FIG. 11. Cell cycle arrest in Hela S3 cells: Morphologic appearance of control (DMSO), granaticin A, and granaticin B treated HeLa S3 cells following 15 hours release from double thymidine block. […] The corresponding FACS profiles are shown.

A459 cells = experiment: Nude mouse xenograft, non small-cell lung cancer; assay type: in vivo; conditions: 2.5 mg/kg/day continuous, osmotic diffusion pumps; sections at day 28
Procedure: FIG. 22A-22C. Granaticin B is Effective Against Multiple Solid Tumors: granaticin B is efficacious against mouse models of melanoma (FIG. 22A), non-small cell lung cancer (FIG. 22B), and ovarian cancer (FIG. 22C). For the ovarian cancer experiments, SCID-Beige mice were injected with 5 million OVCAR3 cells that had been transduced with a GFP-firefly luciferase expressing plasmid (Frattini, M. G. and Brentjens, R. J., unpublished data). These cells were then injected intraperitoneally into 4 cohorts of mice on Day 1. From days 7-14 the mice were injected daily with the indicated concentrations of granaticin B in the intraperitoneal space. […] Nude mice were treated with 2.5 mg/kg/day granaticin B in a continuous fashion using osmotic diffusion pumps. Sections of the treated xenografts are shown after euthanasia at day 28 and H&E staining.

[6] = relapsed (first of two such lines, r11)
[7] = relapsed (second of two such lines, r12)

Which “Mcm2 phosphorylation in cells” value (Mcm2 phosphorylation) does the source give for CC1OC2CC(O)C1(O)c1c(O)c3c(c(O)c12)C(=O)C1=C(C3=O)[C@H](C)O[C@H]2CC(=O)O[C@@H]12 (stereo partly shown) [Granaticin A, granaticin A] here?
The value was “inhibition of Mcm2 phosphorylation”.

And the IC50 (PhALL3.1)?
Its IC50 is 0.14 µM.

What about the “activity in the cell based assays” value (PhALL3.1; PhALL3.1 cell line) of the same compound?
The value was “very active”.

And the IC50 (RB355)?
Its IC50 is 0.09 µM.

What about the IC50 (OVCAR3) of the same compound?
The IC50 was 0.21 µM.

What about the IC50 (A2780) of the same compound?
The IC50 was 0.12 µM.

What about the IC50 (JNDSRCT1) of the same compound?
The IC50 was 0.07 µM.

What about the IC50 (SW1736) of the same compound?
The IC50 was 0.16 µM.

What about the IC50 (JOBL) of the same compound?
Its IC50 is 0.56 µM.

And the “cell cycle profile by FACS” value (Ph-ALL3.1 cells; S phase fraction released into 1 μM)?
Its value is “cell cycle arrest and apoptosis”.

What about the 3H-thymidine incorporation (Ph-ALL3.1 cells; S phase fraction, 2 hours pulses post-release) of the same compound?
The 3H-thymidine incorporation was “markedly reduced incorporation”.

And the IC50 [1]?
The IC50 was 0.46 µM.

What about the IC50 (ALL, Ph+) of the same compound?
The IC50 was 0.56 µM.

And the IC50 (AML, relapsed; [6])?
Its IC50 is 1.2 µM.

What about the IC50 (AML, relapsed; [7]) of the same compound?
The IC50 was 0.21 µM.

What about the IC50 (AML, de novo) of the same compound?
The IC50 was 0.72 µM.

And the IC50 (AML, relapsed s/p HSCT)?
The IC50 was 1.88 µM.

And the IC50 (AMMoL)?
Its IC50 is 0.99 µM.

What about the IC50 [2] of the same compound?
The IC50 was 0.54 µM.

And the IC50 [3]?
The IC50 was 0.63 µM.

And the IC50 (AML, primary refractory)?
The IC50 was 0.77 µM.

What about the IC50 [4] of the same compound?
The IC50 was 0.3 µM.

And the IC50 [5]?
The IC50 was 0.75 µM.

And the IC50 (CML, untreated)?
The IC50 was 0.26 µM.

What about the morphologic appearance (HeLa S3 cells) of the same compound?
The morphologic appearance was “arrested with flattened morphology and peri-nuclear vacuolization”.

What about the “cell cycle progression by FACS” value (HeLa S3 cells) of the same compound?
The value was “S phase progression is also blocked”.

With CC1OC2CC(O[C@H]3CC[C@H](O)[C@H](C)O3)C1(O)c1c(O)c3c(c(O)c12)C(=O)C1=C(C3=O)[C@H](C)O[C@H]2CC(=O)O[C@@H]12 (stereo partly shown) [Granaticin B, granaticin B] as the compound, how does the “efficacy in mouse model of non-small cell lung cancer” value (A459 cells) read?
The value was “efficacious”.

And the IC50 (PhALL3.1)?
The IC50 was 0.03 µM.

What about the IC50 (RB355) of the same compound?
The IC50 was 0.04 µM.

And the IC50 (OVCAR3)?
Its IC50 is 0.11 µM.

And the IC50 (A2780)?
Its IC50 is 0.02 µM.

And the IC50 (JNDSRCT1)?
The IC50 was 0.05 µM.

What about the IC50 (SW1736) of the same compound?
The IC50 was 0.02 µM.

What about the IC50 (JOBL) of the same compound?
Its IC50 is 0.19 µM.

And the IC50 [1]?
Its IC50 is 0.31 µM.

What about the IC50 (ALL, Ph+) of the same compound?
The IC50 was 0.19 µM.

And the IC50 (AML, relapsed; [6])?
The IC50 was 0.1 µM.

And the IC50 (AML, relapsed; [7])?
Its IC50 is 0.05 µM.

And the IC50 (AML, de novo)?
Its IC50 is 0.18 µM.

What about the IC50 (AML, relapsed s/p HSCT) of the same compound?
Its IC50 is 0.62 µM.

What about the IC50 (AMMoL) of the same compound?
Its IC50 is 0.49 µM.

What about the IC50 [2] of the same compound?
The IC50 was 0.1 µM.

And the IC50 [3]?
Its IC50 is 0.1 µM.

And the IC50 (AML, primary refractory)?
Its IC50 is 0.14 µM.

And the IC50 [4]?
The IC50 was 0.04 µM.

And the IC50 [5]?
The IC50 was 0.11 µM.

And the IC50 (CML, untreated)?
The IC50 was 0.08 µM.

And the morphologic appearance (HeLa S3 cells)?
Its morphologic appearance is “nuclear blebbing and cell death”.

And the “cell cycle progression by FACS” value (HeLa S3 cells)?
Its value is “Induces Cell Cycle Arrest”.
